Where a name gives a salt, the structure may show the parent alone.
Assays:
human MCH-1 receptor = biological target: T1, human MCH-1 receptor (Homo sapiens, UniProt Q99705); assay: Ca2+ mobilization experiment for the MCH-1 receptor (FLIPR), inhibition of MCH-induced Ca2+ mobilization; type: cell-based; settings: CHO cells stably expressing human MCH-1 receptor, inhibition of MCH-induced Ca2+ response, read-out: MCH-1 pIC50 (converted)
T1 construct: expressed in transfected cells
Summary of the method: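 Calcium-dye loading (kit with probenecid) of CHO cells stably expressing human MCH-1 ran 90 min at 37C. Cells were then preincubated with compound for 20 min at RT before a submaximal MCH challenge, and Ca2+ was recorded by FLIPR. Responses were expressed as % of compound-free response, and pIC50 came from sigmoidal fits.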

MCH-1 receptor = biological target: T2, MCH-1 receptor (Rattus norvegicus, UniProt P97639); settings: rodents tests; Nat. Med. (2002) 8, 825-830; cited from earlier work
T2 construct: host or cells: rodents in vivo
T2 sequence (P97639 whole entry): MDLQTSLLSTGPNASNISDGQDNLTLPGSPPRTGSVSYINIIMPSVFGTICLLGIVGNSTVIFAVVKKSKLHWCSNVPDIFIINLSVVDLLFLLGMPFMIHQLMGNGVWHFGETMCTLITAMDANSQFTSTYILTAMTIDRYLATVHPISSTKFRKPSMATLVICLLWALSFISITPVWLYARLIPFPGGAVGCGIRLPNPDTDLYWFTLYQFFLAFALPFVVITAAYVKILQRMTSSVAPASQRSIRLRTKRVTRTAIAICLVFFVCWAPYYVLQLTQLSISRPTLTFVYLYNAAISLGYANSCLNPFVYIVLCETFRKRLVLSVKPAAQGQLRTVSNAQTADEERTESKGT

T1 sequence (Q99705 whole entry): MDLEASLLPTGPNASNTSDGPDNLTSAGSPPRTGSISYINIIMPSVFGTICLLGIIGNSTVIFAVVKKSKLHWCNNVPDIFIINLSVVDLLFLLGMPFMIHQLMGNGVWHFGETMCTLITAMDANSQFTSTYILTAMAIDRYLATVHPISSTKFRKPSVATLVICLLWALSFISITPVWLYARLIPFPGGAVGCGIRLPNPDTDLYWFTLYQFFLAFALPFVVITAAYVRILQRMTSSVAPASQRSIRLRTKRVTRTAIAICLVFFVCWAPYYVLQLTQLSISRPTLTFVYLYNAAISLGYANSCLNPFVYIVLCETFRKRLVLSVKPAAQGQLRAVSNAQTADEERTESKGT

| SMILES | IC50 (human MCH-1 receptor) | melting point | antidepressant- and anxiolytic-like effects (MCH-1 receptor) |
| --- | --- | --- | --- |
| COc1cc(-n2ccnc(NCCc3ccccc3)c2=O)ccc1OCCN1CCCC1 [2-04] | 39.8 nM | 101.1 °C |  |
| COc1cc(-n2ccnc(SCCc3ccccc3)c2=O)ccc1OCCN1CCCC1 [2-11] | 20 nM | 79.4 °C |  |
| COCC1=C(C(=O)OC)[C@H](c2ccc(F)c(F)c2)N(C(=O)NCCCN2CCC(c3cccc(NC(C)=O)c3)CC2)C(=O)N1 [SNAP-7941] |  |  | antidepressant- and axiolytic-like affects |
| COc1cc(-n2ccnc(NCCOc3ccccc3)c2=O)ccc1OCCN1CCCC1 (as salt: HCl) [1-67] |  | 198.7 °C |  |
| CN(CCO)CCOc1ccc(-n2ccnc(NCCOc3ccccc3)c2=O)cc1 [1-26] | 251 nM | 103.6 °C |  |
| O=c1c(NCCc2ccccc2)nccn1-c1ccc(OCCN2CCCC2)c(Cl)c1 [2-03] | 31.6 nM | 120.2 °C |  |
| CC(=O)N(C)CCOc1ccc(-n2ccnc(NCCOc3ccccc3)c2=O)cc1 [1-30] | 501 nM | 105.9 °C |  |
| COc1cc(-n2ccnc(NCCOc3ccccc3C)c2=O)ccc1OCCN1CCCC1 [2-33] | 200 nM |  |  |
| COCCN(C)CCOc1ccc(-n2ccnc(NCCOc3ccccc3)c2=O)cc1 [1-29] | 1580 nM |  |  |
| CN(C)CCCNc1ccc(-n2ccnc(NCCOc3ccccc3)c2=O)cc1 [1-21] | 501 nM |  |  |
| COc1cc(-n2ccnc(NCCc3ccc(Cl)cc3)c2=O)ccc1OCCN1CCCC1 [2-24] | 25.1 nM |  |  |
| COc1cc(-n2ccnc(NCCc3ccc(F)cc3)c2=O)ccc1OCCN1CCCC1 [2-16] | 25.1 nM |  |  |
| COc1cc(-n2ccnc(NCCOc3ccccc3)c2=O)ccc1OCCCN1CCC(O)C1 (stereo not shown) [1-76] | 126 nM |  |  |
| O=c1c(NCCOc2ccccc2)nccn1-c1ccc(OCCN2CCOCC2)cc1 [1-44] | 501 nM | 138.1 °C |  |
| O=c1c(NCCc2ccccc2)nccn1-c1ccc(OCCN2CCCC2)cc1 [2-02] | 126 nM |  |  |
| COc1cc(-n2ccnc(NCCc3ccccc3Br)c2=O)ccc1OCCN1CCCC1 [2-19] | 316 nM |  |  |
| O=c1c(NCCOc2ccccc2)nccn1-c1ccc(OCCCCN2CCCC2)cc1 [1-47] | 1000 nM |  |  |
| COc1cc(-n2ccnc(N(C)CCc3ccccc3)c2=O)ccc1OCCN1CCCC1 [2-05] | 501 nM |  |  |
| COc1cc(-n2ccnc(NCCOc3ccccc3)c2=O)ccc1OCCN1CCC(F)CC1 (as salt: HCl) [1-70] |  | 234.9 °C |  |
| COc1cc(-n2ccnc(NCCOc3ccccc3)c2=O)ccc1N1CCC(N(C)C(=O)C(C)C)C1 (stereo not shown) [1-11] | 100 nM |  |  |
| O=c1c(NCCc2ccc(F)cc2)nccn1-c1ccc(OCCN2CCCC2)cc1 [2-15] | 63.1 nM |  |  |
| COc1cc(-n2ccnc(NCCc3ccccc3Cl)c2=O)ccc1OCCN1CCCC1 [2-22] | 100 nM |  |  |

Second part, led by results:

| IC50 (human MCH-1 receptor) | melting point | SMILES | antidepressant- and anxiolytic-like effects (MCH-1 receptor) |
| --- | --- | --- | --- |
| 79.4 nM | > 300 °C | COc1cc(-n2ccnc(NCCc3ccccc3)c2=O)ccc1N1CCC(N2CCOCC2)C1 (stereo not shown) [3-21] |  |
| 50.1 nM | 121.8 °C | CC(=O)N1CCN(CCOc2ccc(-n3ccnc(NCCc4ccccc4)c3=O)cc2Cl)CC1 [3-83] |  |
| 25.1 nM | 151.2 °C | O=c1c(NCCc2ccccc2)nccn1-c1ccc(OCCN2CCC(O)CC2)c(Cl)c1 [3-81] |  |
| 25.1 nM | 113.2 °C | CNC1CCN(c2ccc(-n3ccnc(SCCc4ccccc4)c3=O)cc2OC)C1 (stereo not shown) [6-04] |  |
| 63.1 nM | > 300 °C | COc1cc(-n2ccnc(NCCc3ccccc3)c2=O)ccc1NCCCN1CCOCC1 [3-30] |  |
| 31.6 nM | 105.5 °C | COc1cc(-n2ccnc(SCCc3ccccc3)c2=O)ccc1N1CCC(N(C)C(C)=O)C1 (stereo not shown) [6-08] |  |
| 316 nM | > 300 °C | COc1cc(-n2ccnc(SCCc3ccccc3)c2=O)ccc1NC(=O)CN1CCCC1 [6-18] |  |
| 20 nM | 126.5 °C | COc1cc(-n2ccnc(SCCc3ccccc3)c2=O)ccc1N1CCC(N(C)C)C1 (stereo not shown) [6-07] |  |
| 20 nM | 177 °C | O=c1c(NCCc2ccccc2)nccn1CCc1ccc(CN2CCCC2)cc1 [9-01] |  |
| 126 nM |  | COc1cc(-n2ccnc(NCCc3ccccc3)c2=O)ccc1N1CCC(N2CCC(O)C2)C1 (stereo not shown) [3-20] |  |
| 39.8 nM |  | COc1cc(-n2ccnc(SCCc3ccccc3)c2=O)ccc1N1CCC(O)C1 (stereo not shown) [6-01] |  |
| 50.1 nM |  | CNC1CCN(c2ccc(-n3ccnc(NCCc4ccccc4)c3=O)cc2)C1 (stereo not shown) [3-02] |  |
| 39.8 nM |  | COc1cc(-n2ccnc(NCCc3ccccc3)c2=O)ccc1C=CCN1CCOCC1 [3-23] |  |
| 39.8 nM |  | COc1cc(-n2ccnc(NCCc3ccccc3)c2=O)ccc1OCCCN1CCCC(CO)C1 (stereo not shown) [3-71] |  |
| 50.1 nM |  | COc1cc(-n2ccnc(NCCc3ccccc3)c2=O)ccc1N1CCC(N(C)C)C1 (stereo not shown) [3-13] |  |
| 200 nM |  | COc1cc(-n2ccnc(NCCc3ccccc3)c2=O)ccc1NC1CCNC1 (stereo not shown) [3-24] |  |
| 39.8 nM | 151.6 °C | COc1cc(-n2ccnc(NCCc3ccccc3)c2=O)ccc1OC1CCNC1 (stereo not shown) [3-31] |  |
| 50.1 nM |  | COc1cc(-n2ccnc(NCCc3ccccc3)c2=O)ccc1OCCN1CCOCC1 [3-59] |  |
| 794 nM |  | COc1cc(-n2ccnc(N3CCC(c4ccc(Cl)c(Cl)c4)C3)c2=O)ccc1OCCN1CCCC1 (stereo not shown) [4-08] |  |
| 63.1 nM |  | CNC1CCN(c2ccc(-n3ccnc(NCCc4ccccc4)c3=O)cc2OC)C1 (stereo not shown) [3-12] |  |
| 63.1 nM |  | CC(=O)N(C)C1CCN(c2ccc(-n3ccnc(NCCc4ccccc4)c3=O)cc2)C1 (stereo not shown) [3-03] |  |
| 126 nM |  | COc1cc(-n2ccnc(NCCc3ccccc3)c2=O)ccc1OCCCNC(=O)C(C)C [3-67] |  |
| 50.1 nM |  | COc1cc(-n2ccnc(NCCc3ccccc3)c2=O)ccc1OC1CCN(C2CC2)C1 (stereo not shown) [3-33] |  |

Source: patent publication US8329704B2, “Substituted pyrazinone derivatives for use in MCH-1 mediated diseases” (Janssen Pharmaceutica, N.V., priority 2005, dated 2012)
